Reference: US20120059021A1, “COMPOSITIONS AND METHODS FOR TREATING CANCER AND METHODS FOR PREDICTING A RESPONSE TO SUCH TREATMENTS” (UNIVERSITY OF WASHINGTON, priority 2008, published 2012)
Entries after “also recorded” stand apart in the source; their conditions may differ. Where a SMILES comes first, the peptide text is derived from it. The star is where a group is joined. Cbz = O=C(OCc1ccccc1)*; CH2F = FC*

How the values were obtained:
ppERK1/2 = experiment: Immunoblot for dual-phosphorylated ERK1/2 in melanoma cells; type: cell-based, human; details: for dual-phosphorylated ERK1/2 (ppERK1/2): A375
From the text: By way of non-limiting example, inhibition of ERK signaling can be measured by determining the level of dual-phosphorylated ERK1/2 (ppERK1/2) as described in detail elsewhere herein. In brief, the level of ppERK1/2 can be detected by immunoblot assay.

Wnt/β-catenin signaling [1] = experiment: β-catenin activated reporter (BAR) luciferase assay in A375 melanoma cells; details: for Wnt/β-catenin signaling (BAR activity): A375, in the presence of WNT3A
From the text: By way of non-limiting example, Wnt/β-catenin signaling can be measured using the BAR reporter described in detail elsewhere herein. Briefly, the BAR (β-catenin activated reporter) is a lentiviral plasmid which provides for expression of luciferase in response to Wnt/β-catenin signaling. Output can be measured with an automated luminescence plate reader.
Detailed information on the β-catenin activated reporter (BAR) has been previously described (23). Briefly, the β-catenin activated reporter (pBAR) is a lentiviral plasmid that contains 12 TCF/LEF binding sites (5′-[sequence]-3′) each separated by distinct 5 base-pair linkers upstream of a minimal promoter and the firefly luciferase open reading frame. The reporter also contains a separate PGK promoter that constitutively drives the expression of a puromycin resistance gene for mammalian cell selection. […] PLX4720 was purchased from Symansis (Australia cat# SY-PLX4720). CHIR99021 was purchased from Axon MedChem (Gronigen, Netherlands catalog #Axon1386). Z-VAD-FMK was purchased from R&D systems (Minneapolis, Minn. cat# FMKSP01).
Low throughput BAR reporter assays. Cells were plated in 96-well plates.

GSK3β = experiment: Immunoblot for activating auto-phosphorylation of GSK3β in A375 cells; type: cell-based, human
A375 cells = experiment: Immunoblot of apoptosis markers (cleaved caspase-3, cleaved PARP1) in A375 cells; type: cell-based, human
AXIN1 = experiment: Immunoblot of steady-state AXIN1 levels in melanoma cells; type: cell-based, human; details: for levels of AXIN1 following treatment with WNT3A and PLX4720: A375, 10 μM, 8 hours, WNT3A CM and 2 μM PLX4720
β-catenin = experiment: Immunoblot for β-catenin phosphorylation at Ser33/Ser37/Thr41 in A375 cells; type: cell-based, human
A375 = experiment: qPCR of endogenous Wnt target gene AXIN2, A375; type: cell-based, human; details: A375, stimulated Wnt/β-catenin signaling
From the text: RNA purification and qRT-PCR analysis. RNA was purified using the RNeasy kit following the manufacturer's protocol (Qiagen; Maryland, Md.). cDNA was synthesized using RevertAid™ M-MuLV Reverse Transcriptase (Fermentas; Ontario, CAN). Light Cycler FastStart DNA Master SYBR Green1 (Roche; Mannheim, Germany) was used for real-time PCR as previously described (53). Quantitative PCR results presented in the manuscript are averages of a minimum of three biologic replicates.

ERK1/2 phosphorylation = ERK1/2 phosphorylation in human epidermal melanocytes; type: cell-based; details: HEMs
From the text: Cell Lines. The human melanoma cell lines A375, A2058 and Me1624 were obtained from Cassian Yee (Fred Hutchinson Cancer Research Institute; Seattle, Wash.). The human melanoma cell lines COLO-829, SKMEL28, SKMEL5 were purchased from ATCC (Manassas, Va.). Human Epidermal Melanocytes, adult, lightly pigmented donor, (HEMa-LP) (C0245C) were purchased from Invitrogen (Carlsbad, Calif.). Stable BAR cell lines were generated as previously described (23). BAR luciferase cell lines were also infected with a lentivirus carrying Renilla luciferase driven by a constitutive EFlalpha promoter.
Cell Culture. The human melanoma lines A375, A2058 were cultured in DMEM supplemented with 5% FBS and 1% antibiotic. The human melanoma lines SK-MEL-5 and SK-MEL-28 were grown in EMEM supplemented with 10% FBS and 1% antibiotic. The human melanoma lines COLO-829 and MEL-624 were grown in RPMI supplemented with 10% FBS and 1% antibiotic HEMa-LP cells were cultured in medium 254 supplemented with 1% HMGS and 1% antibiotic (Invitrogen Carlsbad, Calif.). Synthetic siRNAs were transfected into cultured cells at a final concentration of 20 nM using RNAiMAX (Invitrogen; Grand Island, N.Y.).

Wnt/β-catenin signaling [2] = experiment: WNT3A-mediated reporter activity in primary melanocytes; type: cell-based, human; details: HEMs
BAD and Bim (BCL2L11) = experiment: Immunoblot of BH3-only proteins BAD and Bim in A375 cells; type: cell-based, human; details: A375, addition of Z-VAD-FMK, 24 hours
[3] = XAV939 in the presence of U0126 or PLX4720

## Cn1cnc2c(F)c(Nc3ccc(Br)cc3Cl)c(C(=O)NOCCO)cc21 [AZD6244, 6-(4-Bromo-2-chloro-phenylamino)-7-fluoro-3-methyl-3H-benzoimidazole-5-carboxylic acid (2-hydroxy-ethoxy)-amide]
ppERK1/2
  dual-phosphorylated ERK1/2 (ppERK1/2): inhibition of ppERK1/2
Wnt/β-catenin signaling [1]
  Wnt/β-catenin signaling (BAR activity): synergistically enhanced Wnt/β-catenin activation

## Cc1c[nH]c(-c2cnc(NCCNc3ccc(C#N)cn3)nc2-c2ccc(Cl)cc2Cl)n1 [CHIR99021, 6-[[2-[[4-(2,4-dichlorophenyl)-5-(5-methyl-1H-imidazol-2-yl)-2-pyrimidinyl]amino]ethyl]amino]-3-pyridinecarbonitrile]
GSK3β
  activating auto-phosphorylation of GSK3B: loss of the activating auto-phosphorylation at Tyr216
A375 cells; A375, 5 μM CHIR99021 and 2 μM PLX4720, 36 hours
  apoptosis (cleaved caspase-3 immunoblot): enhanced apoptosis in combination with PLX4720

## CC(C)C[C@@H](C=O)NC(=O)[C@H](CC(C)C)NC(=O)[C@H](CC(C)C)NC(=O)OCc1ccccc1 [MG132] (Cbz-Leu-Leu-Leu-aldehyde)
AXIN1
  levels of AXIN1 following treatment with WNT3A and PLX4720: increased the levels of AXIN1

## N#CC(=C(/N)Sc1ccccc1N)/C(C#N)=C(\N)Sc1ccccc1N [U0126, 1,4-diamino-2,3-dicyano-1,4-bis [2-aminophenylthio]butadiene]
ppERK1/2
  dual-phosphorylated ERK1/2 (ppERK1/2): inhibition of ppERK1/2
ppERK1/2; six established melanoma lines harboring the BRAF^V600E mutation
  ERK1/2 phosphorylation: inhibition of ERK1/2 phosphorylation
β-catenin
  phosphorylation of β-catenin at GSK3β sites (Ser33/Ser37/Thr41): decreased phosphorylation of β-catenin
GSK3β
  activating auto-phosphorylation of GSK3B: loss of the activating auto-phosphorylation of GSK3B at Tyr117
A375
  levels of the endogenous Wnt/β-catenin target gene AXIN2: dose-dependent increase
ERK1/2 phosphorylation
  ERK1/2 phosphorylation: inhibits ERK1/2 phosphorylation in a dose-dependent manner
Wnt/β-catenin signaling [2]
  Wnt/β-catenin signaling: inhibited Wnt/β-catenin signaling
AXIN1; absence of rWnt3A
  steady-state levels of AXIN1: slightly decreased
AXIN1; presence of rWnt3A
  steady-state levels of AXIN1: markedly diminished
Wnt/β-catenin signaling [1]
  Wnt/β-catenin signaling (BAR activity): synergistically enhanced Wnt/β-catenin activation; also recorded: dose-dependent increase in stimulated Wnt/β-catenin signaling

## Oc1nc(-c2ccc(C(F)(F)F)cc2)nc2c1CSCC2 [XAV939]
AXIN1; XAV939, absence and presence of rWnt3A
  steady-state levels of AXIN1: increases steady-state levels of AXIN1
AXIN1; [3]
  AXIN1 protein levels: elevate AX1N1 protein levels to above baseline levels
Wnt/β-catenin signaling [1]; [3]
  reversal of enhancement of Wnt/β-catenin signaling by MAPK inhibition: unable to completely reverse the enhancement of Wnt/β-catenin signaling by MAPK inhibition

## COC(=O)C[C@H](NC(=O)[C@H](C)NC(=O)[C@@H](NC(=O)OCc1ccccc1)C(C)C)C(=O)CF [Z-VAD-FMK] (Cbz-Val-Ala-Asp(OMe)-CH2F)
AXIN1; A375, Z-VAD-FMK, 24 hours
  loss of steady-state AXIN1 with WNT3A and PLX4720: did not affect the loss of steady-state AXIN1
A375 cells; A375, Z-VAD-FMK
  apoptosis with WNT3A and PLX4720: able to inhibit apoptosis
A375 cells; A375, addition of Z-VAD-FMK, 24 hours
  PARP1 cleavage induced by WNT3A and PLX4720: completely abolished
BAD and Bim (BCL2L11)
  increase in BimL and BimS with WNT3A and PLX4720: not blocked
Wnt/β-catenin signaling [1]; A375, Z-VAD-FMK with WNT3A and 2 μM PLX4720, 24 hours
  Wnt/β-catenin activation as measured by BAR: augments Wnt/β-catenin activation

## CCN(CC)CCCC(C)Nc1ccnc2cc(Cl)ccc12 (stereo not drawn) [chloroquine]
AXIN1
  levels of AXIN1 following treatment with WNT3A and PLX4720: not
